This is an account of results in patent US20250051327A1, “MALT-1 MODULATORS” (EXSCIENTIA AI LIMITED, priority 2020, published 2025).

As usually defined, the IC50 is the concentration that inhibits the measured activity by half.

Assay [1] concerns the target Recombinant human MALT-1 (amino acids 340-824) (Homo sapiens (Human), UniProt Q9UDY8). As to the kind of experiment: MALT-1 inhibition assay (fluorogenic substrate Ac-LRSR-Rh110-DP). Conditions: recombinant human MALT-1, substrate Ac-LRSR-Rh110-DP. The class given is biochemical. In a few lines:
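MALT-1 at 3 nM final was reacted with 10 μM Ac-LRSR-Rh110-DP, with substrate addition starting the reaction. Incubation ran 60 minutes at 25° C in the dark. Percent inhibition from fluorescence across doses was fitted to a 4-parameter logistic to give IC50.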

In assay [2] the test system is IL-2 secretion by human effector memory T cells (TEM). The experiment in a line: Effector memory T cells IL-2 release assay. To be noted: T-cell; human CD4+ effector memory T cells, CD3/CD28 bead stimulation, 24 h; read-out: CD4TC IL2 IC50. The class given is cell-based. A digest of the protocol: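 Human CD4+ effector memory T cells from healthy-donor buffy coats were stimulated with anti-CD3/CD28 Dynabeads and exposed to 10 semi-log compound doses (0.1% DMSO) for 24 h at 37 °C. Supernatant IL-2 was measured by HTRF, and IC50 came from a 4-parameter logistic fit to maximal IL-2. Viability was checked by flow cytometry.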

Molecules are shown by their SMILES. Where a name gives a salt, the structure may show the parent alone.

Sequence of Recombinant human MALT-1 (amino acids 340-824) (Q9UDY8 340-824): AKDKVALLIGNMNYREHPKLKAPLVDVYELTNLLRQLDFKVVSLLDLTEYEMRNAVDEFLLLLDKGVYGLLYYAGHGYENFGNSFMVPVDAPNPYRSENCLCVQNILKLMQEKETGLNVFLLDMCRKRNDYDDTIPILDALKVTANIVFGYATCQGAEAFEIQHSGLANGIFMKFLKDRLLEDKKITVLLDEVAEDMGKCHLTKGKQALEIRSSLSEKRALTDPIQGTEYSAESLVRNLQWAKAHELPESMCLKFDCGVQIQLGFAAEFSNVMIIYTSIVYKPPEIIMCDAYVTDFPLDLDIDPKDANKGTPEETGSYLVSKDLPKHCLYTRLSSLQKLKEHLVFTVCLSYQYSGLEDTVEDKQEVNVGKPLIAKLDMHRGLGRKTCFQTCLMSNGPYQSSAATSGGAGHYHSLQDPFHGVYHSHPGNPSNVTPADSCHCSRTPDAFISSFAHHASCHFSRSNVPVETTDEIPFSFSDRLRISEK

On to `CN(C(=O)CN1CCNCC1)[C@@H](c1ccc(N2CCCc3c2cnc2cc(Cl)nn32)cc1)C(F)(F)F` [CPD0021745, N-[(1S)-1-(4-{4-chloro-2,3,7,10-tetraazatricyclo[7.4.0.0^2,6]trideca-1(9),3,5,7-tetraen-10-yl}phenyl)-2,2,2-trifluoroethyl]-N-methyl-2-(piperazin-1-yl)acetamide], for which the concentration for half-maximal inhibition (IC50) in assay [1] was found to be 368 nM; in assay [2], 748 nM.

As for `CNCC(=O)N1CC[C@@H](C(=O)N(C)[C@@H](c2ccc(N3CCCc4c3cnc3cc(Cl)nn43)cc2)C(F)(F)F)C1` (relative stereo) [CPD0075881, (3 rel-S)—N-[(1S)-1-[4-(4-chloro-2,3,7,10-tetrazatricyclo[7.4.0.0^2,6]trideca-1(9),3,5,7-tetraen-10-yl)phenyl]-2,2,2-trifluoro-ethyl]-N-methyl-1-[2-(methylamino)acetyl]pyrrolidine-3-carboxamide hydrochloride], the IC50 in assay [1] amounted to 68 nM; in assay [2], 210 nM.

Take `COc1ccc2ncc(Nc3ccc([C@H](N(C)C(=O)[C@H]4CC[S@@](=N)(=O)CC4)C(F)(F)F)cc3)c([C@@H](C)OC)c2n1` [CPD0075564]: the figures for the IC50 in assay [1] and in assay [2] were 89 nM and 175 nM, respectively.

For `COc1ccc2ncc3c(c2n1)C(O)CCN3c1ccc([C@H](N(C)C(=O)C2CCS(=O)(=O)CC2)C(F)(F)F)cc1` (stereo partly drawn) [CPD0072449, N-methyl-1,1-dioxo-N-[(1S)-2,2,2-trifluoro-1-[4-(10-hydroxy-2-methoxy-9,10-dihydro-8H-pyrido[2,3-f][1,7]naphthyridin-7-yl)phenyl]ethyl]thiane-4-carboxamide], the IC50 in assay [1] stood at 432 nM; in assay [2], 940 nM.

With `CN(C(=O)C1CCS(=O)(=O)CC1)[C@@H](c1ccc(N2CCCc3c2cnc2cc(Cl)nn32)cc1)C(F)F` [CPD0073041, N-[(1S)-1-(4-{4-chloro-2,3,7,10-tetraazatricyclo[7.4.0.0^2,6]trideca-1(9),3,5,7-tetraen-10-yl}phenyl)-2,2-difluoroethyl]-N-methyl-1,1-dioxo-1λ^6-thiane-4-carboxamide], the IC50 is 432 nM in assay [1] and 5780 nM in assay [2].

Turning to `CN1C[C@H](C(=O)N(C)[C@@H](c2ccc(N3CCCc4c3cnc3cc(Cl)nn43)cc2)C(F)(F)F)CCC1=O` (relative stereo) [CPD0073197, (3rel-R)-N-[(1S)-1-(4-{4-chloro-2,3,7,10-tetraazatricyclo[7.4.0.0^2,6]trideca-1(9),3,5,7-tetraen-10-yl}phenyl)-2,2,2-trifluoroethyl]-N,1-dimethyl-6-oxopiperidine-3-carboxamide], the IC50 in assay [1] came to 103 nM; in assay [2], 207 nM.

For the compound `CN(C(=O)[C@@H]1CCN(S(C)(=O)=O)C1)[C@@H](c1ccc(N2CCCc3c2cnc2cc(Cl)nn32)cc1)C(F)(F)F` (relative stereo) [CPD0073144, (3rel-R)-N-[(1S)-1-(4-{4-chloro-2,3,7,10-tetraazatricyclo[7.4.0.0^2,6]trideca-1(9),3,5,7-tetraen-10-yl}phenyl)-2,2,2-trifluoroethyl]-1-methanesulfonyl-N-methylpyrrolidine-3-carboxamide], the IC50 in assay [1] was found to be 66 nM; in assay [2], 116 nM.

Consider `CN(C(=O)[C@H]1CCN(S(C)(=O)=O)C1)[C@@H](c1ccc(N2CCCc3c2cnc2cc(Cl)nn32)cc1)C(F)(F)F` (relative stereo) [CPD0073143, (3rel-S)-N-[(1S)-1-(4-{4-chloro-2,3,7,10-tetraazatricyclo[7.4.0.0^2,6]trideca-1(9),3,5,7-tetraen-10-yl}phenyl)-2,2,2-trifluoroethyl]-1-methanesulfonyl-N-methylpyrrolidine-3-carboxamide], for which the IC50 in assay [1] amounted to 68 nM; in assay [2], 107 nM.

As to `CN(C(=O)[C@H]1CC[S@+]([O-])CC1)[C@@H](c1ccc(N2CCC3(CC3)c3c2cnc2cc(Cl)nn32)cc1)C(F)(F)F` (relative stereo) [CPD0072779, (1rel-r,4rel-r)-N-[(1S)-1-(4-{4′-chloro-2′,3′,7′,10′-tetraazaspiro[cyclopropane-1,13′-tricyclo[7.4.0.0^2,6]tridecane]-1′(9′),3′,5′,7′-tetraen-10′-yl}phenyl)-2,2,2-trifluoroethyl]-N-methyl-1-oxo-1λ^4-thiane-4-carboxamide], the IC50 turned out to be 57 nM in assay [1] and 33 nM in assay [2].

For the compound `CN(C(=O)C1CC(C(=O)O)C1)[C@@H](c1ccc(N2CCCc3c2cnc2cc(Cl)nn32)cc1)C(F)(F)F` (some centres unmarked) [CPD0072461], the IC50 in assay [1] worked out at 63 nM; in assay [2], 732 nM.

`CN(C(=O)[C@H]1C[C@@](C)(O)C1)[C@@H](c1ccc(N2CCCc3c2cnc2cc(Cl)nn32)cc1)C(F)(F)F` [CPD0072437, (1r,3s)-N-[(1S)-1-(4-{4-chloro-2,3,7,10-tetraazatricyclo[7.4.0.0^2,6]trideca-1(9),3,5,7-tetraen-10-yl}phenyl)-2,2,2-trifluoroethyl]-3-hydroxy-N,3-dimethylcyclobutane-1-carboxamide]: the IC50 in assay [1] worked out at 123 nM; in assay [2], 178 nM.

On to `CN(C(=O)[C@H]1CNC(=O)O1)[C@@H](c1ccc(N2CCCc3c2cnc2cc(Cl)nn32)cc1)C(F)(F)F` (single isomer, unassigned) [CPD0075576], for which the figures for the IC50 in assay [1] and in assay [2] were 46 nM and 57 nM, respectively.

Turning to `CN1C(=O)CC[C@@H]1C(=O)N(C)[C@@H](c1ccc(N2CCCc3c2cnc2cc(Cl)nn32)cc1)C(F)(F)F` [CPD0073920, (2R)-N-[(1S)-1-(4-{4-chloro-2,3,7,10-tetraazatricyclo[7.4.0.0^2,6]trideca-1(9),3,5,7-tetraen-10-yl}phenyl)-2,2,2-trifluoroethyl]-N,1-dimethyl-5-oxopyrrolidine-2-carboxamide], the IC50 in assay [1] stood at 60 nM; in assay [2] it was 94 nM.

As to `CN1CC[C@@H](C(=O)N(C)[C@@H](c2ccc(N3CCCc4c3cnc3cc(Cl)nn43)cc2)C(F)(F)F)CC1=O` (relative stereo) [CPD0073142, (4rel-R)-N-[(1S)-1-(4-{4-chloro-2,3,7,10-tetraazatricyclo[7.4.0.0^2,6]trideca-1(9),3,5,7-tetraen-10-yl}phenyl)-2,2,2-trifluoroethyl]-N,1-dimethyl-2-oxopiperidine-4-carboxamide], the results for the IC50 in assay [1] and in assay [2] were 68 nM and 122 nM, respectively.

Take `CN(C(=O)[C@@H]1CC12CCS(=O)(=O)CC2)[C@@H](c1ccc(N2CCCc3c2cnc2cc(Cl)nn32)cc1)C(F)(F)F` (relative stereo) [CPD0073921, (1rel-R)-N-[(1S)-1-(4-{4-chloro-2,3,7,10-tetraazatricyclo[7.4.0.0^2,6]trideca-1(9),3,5,7-tetraen-10-yl}phenyl)-2,2,2-trifluoroethyl]-N-methyl-6,6-dioxo-6λ^6-thiaspiro[2.5]octane-1-carboxamide]: the IC50 is 109 nM in assay [1] and 186 nM in assay [2].

As to `COc1ccc2ncc3c(c2n1)CCCN3c1ccc([C@H](N(C)C(=O)C2CCS(=O)(=O)CC2)C(F)(F)F)cc1` [CPD0072532, N-methyl-1,1-dioxo-N-[(1S)-2,2,2-trifluoro-1-[4-(2-methoxy-9,10-dihydro-8H-pyrido[2,3-f][1,7]naphthyridin-7-yl)phenyl]ethyl]thiane-4-carboxamide], the IC50 is 217 nM in assay [1] and 548 nM in assay [2].
